The values below come from US12398097B2, “WDR5-MYC inhibitors” (Vanderbilt University, priority 2019, dated 2025).

The target of the experiment is WDR5 (Homo sapiens, UniProt P61964). Nature of the experiment: Competition-based fluorescence polarization anisotropy assay. Conditions: binding to WDR5; displacement of FITC-labeled small molecule probe (analogous to Example J2 or HCH-25) or peptide probe FITC-AHx-SEEEIDVVSV; pH 6.0; Ki converted from IC50. An outline of the steps:
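Competition fluorescence polarization anisotropy binding to WDR5 using a FITC-labeled peptide probe or a fluorescently labeled small-molecule probe. Buffer: 200 mM phosphate, 300 mM NaCl, 0.5 mM TCEP, 0.1% Chaps, pH 6.0. Displacement data were converted to Ki.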

For orientation: Ki means a dissociation constant, usually derived from enzyme kinetics or from competition with a known ligand. For `CNC(=O)c1c(O)c(NS(=O)(=O)c2cc(Br)ccc2O)cc(C2CC2)c1F` [Example J124, 3-((5-Bromo-2-hydroxyphenyl)sulfonamido)-5-cyclopropyl-6-fluoro-2-hydroxy-N-methylbenzamide], the inhibition constant Ki stood at 280 nM.
The same measure for `COc1cc(F)c(Br)cc1S(=O)(=O)Nc1cc(Cl)cc(C(=O)O)c1O` [Example J8, 3-((5-Bromo-4-fluoro-2-methoxyphenyl)sulfonamido)-5-chloro-2-hydroxybenzoic acid]: 2770 nM; for `CCc1cc(NS(=O)(=O)c2cc(Br)cc(OC(F)(F)F)c2O)c(O)c(C(=O)O)c1` [HCH-13, 3-((5-Bromo-2-hydroxy-3-(trifluoromethoxy)phenyl)sulfonamido)-5-ethyl-2-hydroxybenzoic acid]: 220 nM; for `CNC(=O)c1cc(C2(C#N)CCC2)cc(NS(=O)(=O)c2cc(Br)cc(C)c2O)c1O` [Example J212, 3-((5-Bromo-2-hydroxy-3-methylphenyl)sulfonamido)-5-(1-cyanocyclobutyl)-2-hydroxy-N-methylbenzamide]: 260 nM.
Regarding `CS(=O)(=O)c1cc(NS(=O)(=O)c2cc(Br)ccc2O)cc(C2(C#N)CCC2)c1` [Example S73, 5-bromo-N-(3-(1-cyanocyclobutyl)-5-(methylsulfonyl)phenyl)-2-hydroxybenzenesulfonamide], the affinity corresponds to a Ki of 1030 nM.
In turn, `CCCc1cc(Br)cc(S(=O)(=O)Nc2cc(OC(F)(F)F)cc(C(=O)O)c2O)c1O` [HCH-16, 3-((5-Bromo-2-hydroxy-3-propylphenyl)sulfonamido)-2-hydroxy-5-(trifluoromethoxy)benzoic acid] came in with an inhibition constant Ki of 110 nM.
`O=C(O)c1c(O)c(NS(=O)(=O)c2cc(Br)cc(F)c2O)cc(C2CC2)c1F` [Example J119, 3-((5-Bromo-3-fluoro-2-hydroxyphenyl)sulfonamido)-5-cyclopropyl-6-fluoro-2-hydroxybenzoic acid] showed an inhibition constant Ki of 130 nM.
On to `COCCNC(=O)c1cc(C2CC2)cc(NS(=O)(=O)c2cc(Br)cc(Cl)c2O)c1O` [Example J96, 3-((5-Bromo-3-chloro-2-hydroxyphenyl)sulfonamido)-5-cyclopropyl-2-hydroxy-N-(2-methoxyethyl)benzamide], for which the Ki stood at 610 nM.
The same measure for “Methyl 4-chloro-2-(N-(5-chloro-2-hydroxy-3-nitrophenyl)sulfamoyl)benzoate [NE5]”: 460 nM; for `NC(=O)c1cc(Cl)cc(NS(=O)(=O)c2cc(Br)cc(Cl)c2O)c1O` [HCH-25, 3-((5-Bromo-3-chloro-2-hydroxyphenyl)sulfonamido)-5-chloro-2-hydroxybenzamide]: 270 nM.
`O=C(NC1COC1)c1cc(C2CC2)cc(NS(=O)(=O)c2cc(Br)ccc2O)c1O` [Example J93, 3-((5-Bromo-2-hydroxyphenyl)sulfonamido)-5-cyclopropyl-2-hydroxy-N-(oxetan-3-yl)benzamide] had an inhibition constant (Ki) of 540 nM.
Regarding `O=C1NCCN1c1cc(Cl)cc(NS(=O)(=O)c2cc(Br)cc(Cl)c2O)c1` [NE14, 5-Bromo-3-chloro-N-(3-chloro-5-(2-oxoimidazolidin-1-yl)phenyl)-2-hydroxybenzenesulfonamide], the inhibition constant (Ki) was 370 nM.
For the compound `CNC(=O)c1cc(C2(C#N)CCCCC2)cc(NS(=O)(=O)c2cc(Br)ccc2O)c1O` [Example J233, 3-((5-Bromo-2-hydroxyphenyl)sulfonamido)-5-(1-cyanocyclohexyl)-2-hydroxy-N-methylbenzamide], affinity was put at a Ki of 100 nM.
The compound `O=C(NC1CCOC1)c1cc(OC(F)(F)F)cc(NS(=O)(=O)c2cc(Br)ccc2O)c1O` (stereo not drawn) [Example J167, 3-((5-Bromo-2-hydroxyphenyl)sulfonamido)-2-hydroxy-N-(tetrahydrofuran-3-yl)-5-(trifluoromethoxy)benzamide] registered a Ki of 360 nM.
`NS(=O)(=O)c1cc(Cl)cc(NS(=O)(=O)c2cc(Br)cc(Cl)c2O)c1O` [Example S27, 5-Bromo-3-chloro-N-(5-chloro-2-hydroxy-3-sulfamoylphenyl)-2-hydroxybenzenesulfonamide] gave a Ki of 360 nM.
